Counter-ions that a name gives are not always drawn.
Tests used:
Assay in all cases: MIC assay with different strains, Example 35
Assay type in all cases: cell-based
[1] = system: Haemophilus influenza (ATCC 19418)
Description: (§1) The minimum inhibitory concentration (MIC) is used to determine the lowest concentration of a test product claiming antimicrobial effects that will inhibit growth of a microorganism. Each microbial suspension was adjusted approximately 10^7 to 10^8 colony forming units (CFU) per mL and labeled as the stock suspension. The stock suspension was further diluted to 1:200 in Mueller Hinton broth to obtain a test sample having a concentration of […]. The test sample was then tested for MIC as described in M202.R02. After incubation, each tube was examined for turbidity, which indicated growth or no growth. For the tubes where the product rendered the media turbid, an aliquot of the media was streaked onto agar plates to confirm growth or lack of growth.

[2] = system: Enterococcus faecalis (ATCC 51299)
Description: as §1

[3] = system: Bacillus subtilis (ATCC 6633)
Description: as §1

[4] = system: Staphylococcus saprophyticus (ATCC 15305)
Description: as §1

[5] = system: Staphylococcus aureus (ATCC 6538)
Description: as §1

[6] = system: Escherichia coli (ATCC 11229)
Description: as §1

[7] = system: Klebsiella oxytoca (ATCC 43165)
Description: as §1

[8] = system: Candida albicans (ATCC 10231)
Description: as §1

[9] = system: Streptococcus pneumonia (ATCC 6303)
Description: as §1

[10] = system: Proteus mirabilis (ATCC 7002)
Description: as §1

[11] = system: Staphylococcus haemolyticus (ATCC 29970)
Description: as §1

[12] = system: Enterobacter cloacae (ATCC 13047)
Description: as §1

[13] = system: Escherichia coli ATCC 25922
Description: as §1

[14] = system: Staphylococcus epidermidis (ATCC 12228)
Description: as §1

[15] = system: Streptococcus pyogenes (ATCC 19615)
Description: as §1

[16] = system: Acinetobacter baumannii (ATCC 19606)
Description: as §1

Which MIC ([1]; Example 35) does the source give for `CCCCCCCCCCCCOC(=O)C(C)N(C)C` (stereo not shown) [Nex-05, Dodecyl 2-(dimethylamino)propanoate hydrochloride] here?
Its MIC is 5%.

And the Growth/no growth ([1]; Sample Concentration 0.039%)?
Its Growth/no growth is “Growth”.

What about the Growth/no growth ([1]; Sample Concentration 0.078%) of the same compound?
Its Growth/no growth is “Growth”.

What about the Growth/no growth ([1]; Sample Concentration 0.156%) of the same compound?
Its Growth/no growth is “Growth”.

What about the Growth/no growth ([1]; Sample Concentration 0.313%) of the same compound?
Its Growth/no growth is “Growth”.

What about the Growth/no growth ([1]; Sample Concentration 0.625%) of the same compound?
Its Growth/no growth is “Growth”.

And the Growth/no growth ([1]; Sample Concentration 1.25%)?
The Growth/no growth was “Growth”.

And the Growth/no growth ([1]; Sample Concentration 2.5%)?
Its Growth/no growth is “Growth”.

What about the MIC ([2]; Example 35) of the same compound?
The MIC was 0.313%.

And the Growth/no growth ([2]; Sample Concentration 0.039%)?
Its Growth/no growth is “Growth”.

And the Growth/no growth ([2]; Sample Concentration 0.078%)?
The Growth/no growth was “Growth”.

What about the Growth/no growth ([2]; Sample Concentration 0.156%) of the same compound?
Its Growth/no growth is “Growth”.

What about the MIC ([3]; Example 35) of the same compound?
Its MIC is 0.313%.

What about the Growth/no growth ([3]; Sample Concentration 0.039%) of the same compound?
The Growth/no growth was “Growth”.

What about the Growth/no growth ([3]; Sample Concentration 0.078%) of the same compound?
The Growth/no growth was “Growth”.

And the Growth/no growth ([3]; Sample Concentration 0.156%)?
The Growth/no growth was “Growth”.

And the MIC ([4]; Example 35)?
The MIC was 0.625%.

What about the Growth/no growth ([4]; Sample Concentration 0.039%) of the same compound?
The Growth/no growth was “Growth”.

What about the Growth/no growth ([4]; Sample Concentration 0.078%) of the same compound?
The Growth/no growth was “Growth”.

What about the Growth/no growth ([4]; Sample Concentration 0.156%) of the same compound?
Its Growth/no growth is “Growth”.

What about the Growth/no growth ([4]; Sample Concentration 0.313%) of the same compound?
The Growth/no growth was “Growth”.

What about the MIC ([5]; Example 35) of the same compound?
The MIC was 2.5%.

What about the Growth/no growth ([5]; Sample Concentration 0.039%) of the same compound?
Its Growth/no growth is “Growth”.

What about the Growth/no growth ([5]; Sample Concentration 0.078%) of the same compound?
The Growth/no growth was “Growth”.

And the Growth/no growth ([5]; Sample Concentration 0.156%)?
Its Growth/no growth is “Growth”.

And the Growth/no growth ([5]; Sample Concentration 0.313%)?
The Growth/no growth was “Growth”.

What about the Growth/no growth ([5]; Sample Concentration 0.625%) of the same compound?
Its Growth/no growth is “Growth”.

What about the Growth/no growth ([5]; Sample Concentration 1.25%) of the same compound?
Its Growth/no growth is “Growth”.

And the MIC ([6]; Example 35)?
The MIC was 0.625%.

What about the Growth/no growth ([6]; Sample Concentration 0.039%) of the same compound?
Its Growth/no growth is “Growth”.

What about the Growth/no growth ([6]; Sample Concentration 0.078%) of the same compound?
Its Growth/no growth is “Growth”.

And the Growth/no growth ([6]; Sample Concentration 0.156%)?
Its Growth/no growth is “Growth”.

What about the Growth/no growth ([6]; Sample Concentration 0.313%) of the same compound?
Its Growth/no growth is “Growth”.

What about the MIC ([7]; Example 35) of the same compound?
Its MIC is 1.25%.

What about the Growth/no growth ([7]; Sample Concentration 0.039%) of the same compound?
The Growth/no growth was “Growth”.

And the Growth/no growth ([7]; Sample Concentration 0.078%)?
The Growth/no growth was “Growth”.

And the Growth/no growth ([7]; Sample Concentration 0.156%)?
Its Growth/no growth is “Growth”.

And the Growth/no growth ([7]; Sample Concentration 0.313%)?
The Growth/no growth was “Growth”.

What about the Growth/no growth ([7]; Sample Concentration 0.625%) of the same compound?
The Growth/no growth was “Growth”.

And the MIC ([8]; Example 35)?
The MIC was 0.313%.

And the Growth/no growth ([8]; Sample Concentration 0.039%)?
Its Growth/no growth is “Growth”.

What about the Growth/no growth ([8]; Sample Concentration 0.078%) of the same compound?
The Growth/no growth was “Growth”.

What about the Growth/no growth ([8]; Sample Concentration 0.156%) of the same compound?
The Growth/no growth was “Growth”.

What about the MIC ([9]; Example 35) of the same compound?
Its MIC is 0.156%.

What about the Growth/no growth ([9]; Sample Concentration 0.039%) of the same compound?
The Growth/no growth was “Growth”.

What about the Growth/no growth ([9]; Sample Concentration 0.078%) of the same compound?
The Growth/no growth was “Growth”.

And the MIC ([10]; Example 35)?
The MIC was 1.25%.

What about the Growth/no growth ([10]; Sample Concentration 0.039%) of the same compound?
Its Growth/no growth is “Growth”.

What about the Growth/no growth ([10]; Sample Concentration 0.078%) of the same compound?
The Growth/no growth was “Growth”.

And the Growth/no growth ([10]; Sample Concentration 0.156%)?
Its Growth/no growth is “Growth”.

And the Growth/no growth ([10]; Sample Concentration 0.313%)?
Its Growth/no growth is “Growth”.

And the Growth/no growth ([10]; Sample Concentration 0.625%)?
The Growth/no growth was “Growth”.

What about the MIC ([11]; Example 35) of the same compound?
Its MIC is 0.313%.

And the Growth/no growth ([11]; Sample Concentration 0.039%)?
The Growth/no growth was “Growth”.

What about the Growth/no growth ([11]; Sample Concentration 0.078%) of the same compound?
Its Growth/no growth is “Growth”.

And the Growth/no growth ([11]; Sample Concentration 0.156%)?
The Growth/no growth was “Growth”.

And the MIC ([12]; Example 35)?
Its MIC is 0.625%.

And the Growth/no growth ([12]; Sample Concentration 0.039%)?
The Growth/no growth was “Growth”.

What about the Growth/no growth ([12]; Sample Concentration 0.078%) of the same compound?
Its Growth/no growth is “Growth”.

What about the Growth/no growth ([12]; Sample Concentration 0.156%) of the same compound?
The Growth/no growth was “Growth”.

What about the Growth/no growth ([12]; Sample Concentration 0.313%) of the same compound?
Its Growth/no growth is “Growth”.

And the MIC ([13]; Example 35)?
Its MIC is 1.25%.

What about the Growth/no growth ([13]; Sample Concentration 0.039%) of the same compound?
The Growth/no growth was “Growth”.

And the Growth/no growth ([13]; Sample Concentration 0.078%)?
The Growth/no growth was “Growth”.

And the Growth/no growth ([13]; Sample Concentration 0.156%)?
Its Growth/no growth is “Growth”.

What about the Growth/no growth ([13]; Sample Concentration 0.313%) of the same compound?
Its Growth/no growth is “Growth”.

What about the Growth/no growth ([13]; Sample Concentration 0.625%) of the same compound?
The Growth/no growth was “Growth”.

What about the MIC ([14]; Example 35) of the same compound?
Its MIC is 0.313%.

And the Growth/no growth ([14]; Sample Concentration 0.039%)?
The Growth/no growth was “Growth”.

What about the Growth/no growth ([14]; Sample Concentration 0.078%) of the same compound?
Its Growth/no growth is “Growth”.

And the Growth/no growth ([14]; Sample Concentration 0.156%)?
The Growth/no growth was “Growth”.

And the MIC ([15]; Example 35)?
The MIC was 0.313%.

And the Growth/no growth ([15]; Sample Concentration 0.039%)?
The Growth/no growth was “Growth”.

And the Growth/no growth ([15]; Sample Concentration 0.078%)?
Its Growth/no growth is “Growth”.

What about the Growth/no growth ([15]; Sample Concentration 0.156%) of the same compound?
The Growth/no growth was “Growth”.

What about the MIC ([16]; Example 35) of the same compound?
The MIC was 0.313%.

And the Growth/no growth ([16]; Sample Concentration 0.039%)?
Its Growth/no growth is “Growth”.

And the Growth/no growth ([16]; Sample Concentration 0.078%)?
Its Growth/no growth is “Growth”.

And the Growth/no growth ([16]; Sample Concentration 0.156%)?
Its Growth/no growth is “Growth”.

From US20140357713A1, “ANTIMICROBIAL COMPOUNDS AND METHODS OF USE” (NexMed Holdings, Inc., priority 2012, published 2014)
